Eleven compounds from ChEMBL document CHEMBL1201862, “PubChem BioAssay data set” (2004) can be followed below.

Some test systems named below: SN12C; HCT-15; SK-MEL-5; SF-539; COLO 205; U-251; TK-10; MDA-MB-231; OVCAR-3; IGROV-1; HT-29; OVCAR-8; ACHN; SF-268; UO-31; Malme-3M; NCI/ADR-RES; SNB-19; OVCAR-5; SR.
Assay in all cases: NCI tumour cell line growth inhibition, 48 h

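Cells were grown in 96-well plates and exposed to each compound for 48 hours at five concentrations; endpoints were interpolated linearly between bracketing concentrations, or set to the highest concentration if not reached. GI50 is the concentration that inhibits growth by half.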 The source made the active and inactive calls. Rule as the data show it: active = GI50 up to about 1.1 µM and inactive = higher.

In the case of `O=C1CSC(=S)N1c1ccc(F)cc1F`, the GI50 with SN12C was > 100 µM (inactive); in the test on HCT-15, 36.2 µM; in the test with SK-MEL-5, 25.4 µM (inactive); in the test with SF-539 it was 38.7 µM (inactive); in the test on COLO 205, 46.2 µM (inactive); in the test on U-251, 59.2 µM (inactive). Moreover, the GI50 is 94.4 µM (inactive) with TK-10; > 100 µM (inactive) with MDA-MB-231; 41.3 µM (inactive) in the test on OVCAR-3; 51.6 µM (inactive) in the test on IGROV-1; 90.8 µM (inactive) in the test on HT-29; 58.3 µM (inactive) in the test on OVCAR-8. Besides, the GI50 is 53.7 µM (inactive) with ACHN; 44.6 µM (inactive) in the test with SF-268; 89.9 µM (inactive) in the test with UO-31; 66.5 µM (inactive) in the test with Malme-3M; 42.2 µM (inactive) in the test on NCI/ADR-RES; 76.6 µM (inactive) with SNB-19.

Consider `COc1cc(/C=C2\N=C(c3ccccc3)N(c3nc4c(OC)ccc(OC)c4s3)C2=O)cc(OC)c1OC`, for which the GI50 with SN12C is > 100 µM (inactive); in the test with HCT-15 it was 95.7 µM; in the test on OVCAR-5, > 100 µM (inactive); in the test on SK-MEL-5, 34.8 µM (inactive); with COLO 205 it was 30.4 µM (inactive); in the test on U-251, 56.1 µM (inactive). For the same compound, the GI50 in the test with TK-10 is > 100 µM (inactive); with MDA-MB-231, > 100 µM (inactive); with OVCAR-3, > 100 µM (inactive); in the test on IGROV-1, > 100 µM (inactive); in the test on HT-29, > 100 µM (inactive); in the test with OVCAR-8 it was 86.1 µM (inactive). Further, the GI50 in the test with ACHN, with SF-268, in the test on UO-31, in the test on Malme-3M, in the test with NCI/ADR-RES and with SNB-19 was > 100 µM (inactive) in each case.

As for `CCOC(=O)/C(=C\Nc1c(C)n(C)n(-c2ccccc2)c1=O)C(=O)c1ccccc1`, the GI50 in the test on SN12C is > 100 µM (inactive); in the test with HCT-15, over 100 µM; in the test on OVCAR-5, > 100 µM (inactive); with SK-MEL-5 it was > 100 µM (inactive); in the test on SF-539 it was > 100 µM (inactive); with COLO 205, > 100 µM (inactive). The GI50 in the test with U-251, in the test with SR, with TK-10, in the test with MDA-MB-231, in the test on OVCAR-3 and in the test with IGROV-1 was > 100 µM (inactive) each time. Also, the GI50 in the test with HT-29, in the test with ACHN, in the test with SF-268, in the test on UO-31, with Malme-3M and in the test on SNB-19 was > 100 µM (inactive) each time.

Consider `N#Cc1c(N)n(-c2cccc(C(=O)O)c2)c(=O)c2cc([N+](=O)[O-])ccc12`, for which the GI50 is > 100 µM (inactive) with SN12C; over 100 µM with HCT-15; > 100 µM (inactive) in the test with SK-MEL-5; > 100 µM (inactive) with COLO 205; > 100 µM (inactive) with U-251; > 100 µM (inactive) in the test on TK-10. In addition, the GI50 with MDA-MB-231, with HT-29, in the test on OVCAR-8, in the test with ACHN, with SF-268 and in the test on UO-31 was > 100 µM (inactive) in each case. For the same compound, the GI50 with NCI/ADR-RES and in the test with SNB-19 was > 100 µM (inactive) throughout.

Regarding `CC(=O)OC/C=C(/CCl)CCC(Br)C(C)(C)Br.CC(=O)OC/C=C(\CCl)CCC(Br)C(C)(C)Br` (stereo unspecified), the GI50 in the test on SN12C was > 10 µM (inactive); in the test with HCT-15, over 10 µM; in the test on OVCAR-5 it was > 10 µM (inactive); in the test on SK-MEL-5 it was > 10 µM (inactive); in the test with SF-539, > 10 µM (inactive); in the test on COLO 205, > 10 µM (inactive). Also, the GI50 in the test on U-251, in the test with TK-10, in the test on MDA-MB-231, with OVCAR-3, with IGROV-1 and in the test on HT-29 was > 10 µM (inactive) each time. Besides, the GI50 in the test on OVCAR-8, in the test on ACHN, in the test on SF-268, with UO-31, in the test with Malme-3M and with NCI/ADR-RES was > 10 µM (inactive) throughout. Moreover, the GI50 in the test with SNB-19 is > 10 µM (inactive).

As for `CC1=NNC(=O)C1C1CC(c2c[nH]c3ccccc23)=NN(C(N)=O)C1=O` (stereo unspecified), the GI50 in the test with SN12C was > 100 µM (inactive); in the test with HCT-15, 37.8 µM; with OVCAR-5 it was > 100 µM (inactive); with SK-MEL-5, 82 µM (inactive); in the test with SF-539, 91.4 µM (inactive); with COLO 205, 53.2 µM (inactive). For the same compound, the GI50 was 51.2 µM (inactive) in the test on U-251; > 100 µM (inactive) with TK-10; > 100 µM (inactive) with MDA-MB-231; > 100 µM (inactive) in the test with OVCAR-3; 4.4 µM (inactive) with IGROV-1; > 100 µM (inactive) in the test with HT-29. In addition, the GI50 in the test on OVCAR-8 is 98.6 µM (inactive); in the test on ACHN it was 97.9 µM (inactive); in the test with SF-268, > 100 µM (inactive); in the test on UO-31, 28.7 µM (inactive); with Malme-3M, > 100 µM (inactive); in the test with NCI/ADR-RES, > 100 µM (inactive). Further, the GI50 with SNB-19 was 75 µM (inactive).

With `N#Cc1ccc(N2CCOCC2)cc1`, the GI50 was > 100 µM (inactive) in the test with SN12C; over 100 µM in the test on HCT-15; > 100 µM (inactive) with OVCAR-5; > 100 µM (inactive) with SK-MEL-5; > 100 µM (inactive) in the test on SF-539; > 100 µM (inactive) in the test on COLO 205. The GI50 with U-251, in the test on TK-10, in the test on MDA-MB-231, in the test on OVCAR-3, with IGROV-1 and with HT-29 was > 100 µM (inactive) in each case. The GI50 in the test on OVCAR-8, in the test on ACHN, with SF-268, in the test on UO-31, in the test on NCI/ADR-RES and in the test on SNB-19 was > 100 µM (inactive) in each case.

As to `CC(C)(NC1=NCCO1)c1ccccc1`, the GI50 in the test with SN12C is > 100 µM (inactive); with HCT-15, over 100 µM; with OVCAR-5, > 100 µM (inactive); in the test with SK-MEL-5 it was > 100 µM (inactive); with SF-539, > 100 µM (inactive); with COLO 205 it was > 100 µM (inactive). Besides, the GI50 in the test on U-251, in the test on TK-10, in the test with MDA-MB-231, with OVCAR-3, in the test with IGROV-1 and with HT-29 was > 100 µM (inactive) throughout. The GI50 in the test on OVCAR-8, in the test with ACHN, in the test with SF-268, with UO-31, with Malme-3M and in the test with NCI/ADR-RES was > 100 µM (inactive) each time. The GI50 with SNB-19 is 43.4 µM (inactive).

Consider `O=C1c2ccccc2C(C2c3ccccc3C(=O)c3cc(Br)ccc32)c2ccc(Br)cc21` (stereo unspecified), for which the GI50 with SN12C is > 100 µM (inactive); with HCT-15, over 100 µM; in the test with OVCAR-5 it was > 100 µM (inactive); in the test with SK-MEL-5, > 100 µM (inactive); in the test on COLO 205, > 100 µM (inactive); with U-251, > 100 µM (inactive). Moreover, the GI50 with TK-10, in the test on MDA-MB-231, in the test on OVCAR-3, with IGROV-1, in the test with HT-29 and with OVCAR-8 was > 100 µM (inactive) in each case. Moreover, the GI50 in the test on ACHN, in the test with SF-268, in the test with UO-31, with Malme-3M, in the test on NCI/ADR-RES and with SNB-19 was > 100 µM (inactive) throughout.

As to `Cc1ccc(NC2=CC(=O)C(NO)c3ccccc32)cc1` (stereo unspecified), the GI50 with SN12C is 3.36 µM (inactive); with HCT-15, 2.79 µM; in the test on OVCAR-5, 8.59 µM (inactive); in the test on SK-MEL-5, 1.49 µM (inactive); in the test on SF-539, 3.01 µM (inactive); in the test with COLO 205, 2.81 µM (inactive). In addition, the GI50 in the test with U-251 was 3.15 µM (inactive); with TK-10, 16.8 µM (inactive); in the test on MDA-MB-231, 2.21 µM (inactive); in the test with OVCAR-3, 0.61 µM (active); in the test on IGROV-1 it was 1.53 µM (inactive); in the test with HT-29, 4.35 µM (inactive). Besides, the GI50 in the test on OVCAR-8 was 1.63 µM (inactive); in the test with ACHN it was 2.84 µM (inactive); in the test with SF-268, 3.32 µM (inactive); in the test on UO-31, 2.82 µM (inactive); in the test with NCI/ADR-RES, 2.08 µM (inactive); with SNB-19, 3.18 µM (inactive).

In the case of `COc1ccc(/N=c2/[nH]c(N)c(C(=O)c3ccc(OC)cc3)s2)cc1`, the GI50 with SN12C is 1.93 µM (inactive); with HCT-15, 0.412 µM; in the test with OVCAR-5, 15.3 µM (inactive); in the test with SK-MEL-5, 0.381 µM (active); with SF-539, 0.313 µM (active); with COLO 205, 0.279 µM (active). For the same compound, the GI50 with U-251 was 0.31 µM (active); with TK-10, 15.1 µM (inactive); with MDA-MB-231, 1 µM (active); with OVCAR-3 it was 0.255 µM (active); in the test with IGROV-1, 0.471 µM (active); in the test on HT-29, 0.316 µM (active). The GI50 in the test with OVCAR-8 was 0.537 µM (active); with SF-268, 12.9 µM (inactive); in the test with UO-31 it was 0.468 µM (active); with NCI/ADR-RES it was 0.211 µM (active); in the test with SNB-19 it was 0.474 µM (active).
